In assay [1] the test system is NQO1 specific enzyme activity in BEAS-2B cells (marker for NRF2 activation). The experiment in a line: BEAS-2B NQO1 MTT Assay. Conditions: Homo sapiens, compound incubated 48 hours, read-out: EC50 (NQO1 specific enzyme activity induction). The assay is classed as cell-based. The method in brief:
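BEAS-2B cells treated with compound for 48 h at 37 °C, then lysed; NQO1 activity in lysates measured kinetically by MTT reduction at A570 over 30 min. pEC50 from 3-parameter fit of ΔOD/min versus log concentration; lysate also taken for Cell Titer Glo.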

The target in assay [2] is T1, full length Keap1 protein / full length NRF2 protein (Homo sapiens, UniProt Q14145).
T1 construct: full length NRF2 protein and full length Keap1 protein (Keap1 exists a dimer) are used; His
T1 sequence (Q14145 whole entry): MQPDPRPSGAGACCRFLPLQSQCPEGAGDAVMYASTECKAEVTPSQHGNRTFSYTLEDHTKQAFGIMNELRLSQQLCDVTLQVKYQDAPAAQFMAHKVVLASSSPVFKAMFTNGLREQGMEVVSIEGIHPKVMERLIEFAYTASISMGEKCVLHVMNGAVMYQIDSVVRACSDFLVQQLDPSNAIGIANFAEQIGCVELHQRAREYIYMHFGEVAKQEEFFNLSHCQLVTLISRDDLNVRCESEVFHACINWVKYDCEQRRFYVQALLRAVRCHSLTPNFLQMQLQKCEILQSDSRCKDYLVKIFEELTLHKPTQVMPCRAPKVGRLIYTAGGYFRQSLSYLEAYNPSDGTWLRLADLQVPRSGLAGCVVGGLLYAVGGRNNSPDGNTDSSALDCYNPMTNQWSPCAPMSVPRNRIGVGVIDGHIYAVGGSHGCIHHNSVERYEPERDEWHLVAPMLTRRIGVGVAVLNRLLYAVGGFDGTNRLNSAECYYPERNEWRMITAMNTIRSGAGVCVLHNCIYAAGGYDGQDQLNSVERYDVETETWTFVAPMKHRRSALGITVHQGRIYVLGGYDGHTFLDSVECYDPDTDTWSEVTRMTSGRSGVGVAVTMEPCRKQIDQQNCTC
The experiment in a line: NRF2-Keap1 TR-FRET Assay. It counts as binding. To be noted: 25 nM Keap1-FlagHis and 50 nM biotin-NRF2 added. The method in brief:
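Full-length Keap1-FlagHis preincubated with compound 2.25 h at 37 °C, then biotin-NRF2 added for 1.25 h at 4 °C, in Tris pH 8.0 with MgCl2, NaCl, BSA, DTT, CHAPS. TR-FRET 665/615 nm ratio normalised to with- and without-protein 1% DMSO controls; pIC50 from four-parameter fit.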

We go through 24 molecules from patent publication US10364256B2 (GlaxoSmithKline Intellectual Property Development Limited, priority 2015, dated 2019).

In the case of `CCC[C@@H]1CO[C@@H](C)CN1C(=O)c1cccc(-c2cccc(-n3ncc(C(=O)O)c3C3CC3)c2)c1F` [Example 45, 5-cyclopropyl-1-(3-{2-fluoro-3-[(2S,5R)-2-methyl-5-propylmorpholine-4-carbonyl]phenyl}phenyl)-1H-pyrazole-4-carboxylic Acid], in assay [1], the concentration giving a half-maximal response (EC50) was in the range of 100 to 1000 nM. For the same molecule, the IC50 in assay [2] lay within 100 to 1000 nM.

Regarding `O=C(O)c1cnn(-c2cccc(-c3cccc(C(=O)N4CCCCC4C4CCCC4)c3F)c2)c1C1CC1` (stereo not drawn) [Example 33, 1-{3-[3-(2-Cyclopentylpiperidine-1-carbonyl)-2-fluorophenyl]phenyl}-5-cyclopropyl-1H-pyrazole-4-carboxylic Acid], the EC50 in assay [1] fell in the range of 100 to 1000 nM. In addition, the IC50 in assay [2] was in the range of 100 to 1000 nM.

Turning to `COCC1CCCCN1C(=O)c1cccc(-c2cccc(-n3ncc(C(=O)O)c3C3C[C@H]3c3cn(C)nn3)c2)c1F` (mixture of isomers) [Example 264, 1-(3′-(2-(Methoxymethyl)piperidine-1-carbonyl)-2′-fluoro-[1,1′-biphenyl]-3-yl)-5-(trans-2-(1-methyl-1H-1,2,3-triazol-4-yl)cyclopropyl)-1H-pyrazole-4-carboxylic Acid], in assay [1], the EC50 lay within 100 to 1000 nM. Moreover, the IC50 in assay [2] fell in the range of 10 to 100 nM.

Turning to `CC(Oc1cccc(-c2cccc(-n3ncc(C(=O)O)c3[C@@H]3C[C@H]3c3cn(C)nn3)n2)c1)C1CCCCC1` (relative stereo) [Example 249, 1-(6-(3-(1-Cyclohexylethoxy)phenyl)pyridin-2-yl)-5-(trans-2-(1-methyl-1H-1,2,3-triazol-4-yl)cyclopropyl)-1H-pyrazole-4-carboxylic Acid], the EC50 in assay [1] fell in the range of 1 to 10 nM. Further, the IC50 in assay [2] was 10 to 100 nM.

Consider `Cn1cc([C@@H]2C[C@H]2c2c(C(=O)O)cnn2-c2cccc(-c3cccc(CN4Cc5ccccc5OC(C)(C)C4)c3)c2)nn1` (racemic) [Example 254, 1-(3′-((2,2-Dimethyl-2,3-dihydrobenzo[f][1,4]oxazepin-4(5H)-yl)methyl)-[1,1′-biphenyl]-3-yl)-5-(trans-2-(1-methyl-1H-1,2,3-triazol-4-yl)cyclopropyl)-1H-pyrazole-4-carboxylic Acid], for which, in assay [1], the EC50 is 100 to 1000 nM. In addition, the IC50 in assay [2] lay within 100 to 1000 nM.

On to `CC(C)CC1CCCCN1C(=O)c1cccc(-c2cccc(-n3ncc(C(=O)O)c3C3CC3)c2)c1F` (stereo not drawn) [Example 28, 5-Cyclopropyl-1-(3-{2-fluoro-3-[2-(2-methylpropyl)piperidine-1-carbonyl]phenyl}phenyl)-1H-pyrazole-4-carboxylic Acid], for which the EC50 in assay [1] is 100 to 1000 nM. The molecule also yielded an IC50 in assay [2] of 100 to 1000 nM.

Turning to `CC(C)Oc1cccc(-c2cccc(-n3ncc(C(=O)O)c3C3CC3c3cn(C)nn3)c2)c1` (stereo not drawn) [Example 59, 1-(3′-Isopropoxy-[1,1′-biphenyl]-3-yl)-5-(2-(1-methyl-1H-1,2,3-triazol-4-yl)cyclopropyl)-1H-pyrazole-4-carboxylic Acid], the EC50 in assay [1] is 1000 to 10000 nM. This molecule also came in with a half-maximal inhibitory concentration (IC50) in assay [2] of 100 to 1000 nM.

On to `CC1CC(C)CN(C(=O)c2cccc(-c3cccc(-n4ncc(C(=O)O)c4C4CC4)c3)c2F)C1` (stereo not drawn) [Example 53, 5-Cyclopropyl-1-[3′-(3,5-dimethyl-piperidine-1-carbonyl)-2′-fluoro-biphenyl-3-yl]-1H-pyrazole-4-carboxylic Acid], for which the concentration for a half-maximal effect (EC50) in assay [1] was 100 to 1000 nM. Moreover, in assay [2], the IC50 is 100 to 1000 nM.

For the molecule `O=C(O)c1cnn(-c2cccc(-c3cccc(C(=O)N4CCCC5CCCCC54)c3F)c2)c1C1CC1` (stereo not drawn) [Example 31, 5-Cyclopropyl-1-{3-[3-(decahydroquinoline-1-carbonyl)-2-fluorophenyl]phenyl}-1H-pyrazole-4-carboxylic Acid], the EC50 in assay [1] is 100 to 1000 nM. The molecule also had an IC50 in assay [2] of 1000 to 10000 nM.

As for `CC1CCCN(C(=O)c2cccc(-c3cccc(-n4ncc(C(=O)O)c4C4CC4)c3)c2F)CC1` (stereo not drawn) [Example 29, 5-Cyclopropyl-1-{3-[2-fluoro-3-(4-methylazepane-1-carbonyl)phenyl]phenyl}-1H-pyrazole-4-carboxylic Acid], the EC50 in assay [1] lay in the range of 100 to 1000 nM. Further, the IC50 in assay [2] fell in the range of 100 to 1000 nM.

Consider `Cn1cc([C@@H]2C[C@H]2c2c(C(=O)O)cnn2-c2cccc(-c3cccc(-n4ncc5c4C(C)(C)CC5)c3)n2)nn1` (racemic) [Example 251, 1-(6-(3-(6,6-Dimethyl-5,6-dihydrocyclopenta[c]pyrazol-1(4H)-yl)phenyl)pyridin-2-yl)-5-(trans-2-(1-methyl-1H-1,2,3-triazol-4-yl)cyclopropyl)-1H-pyrazole-4-carboxylic Acid], for which, in assay [1], the EC50 was 100 to 1000 nM. In assay [2], this molecule had an IC50 of 10 to 100 nM.

On to `O=C(O)c1cnn(-c2cccc(-c3cccc(C(=O)N4C5CCCC4CCC5)c3F)c2)c1C1CC1` [Example 34, 1-[3-(3-{9-azabicyclo[3.3.1]nonane-9-carbonyl}-2-fluorophenyl)phenyl]-5-cyclopropyl-1H-pyrazole-4-carboxylic Acid], for which the EC50 in assay [1] lay in the range of 100 to 1000 nM. Further, in assay [2], the half-maximal inhibitory concentration (IC50) lay within 100 to 1000 nM.

`CCOC[C@@H]1CCCN1C(=O)c1cccc(-c2cccc(-n3ncc(C(=O)O)c3[C@@H]3C[C@H]3c3cn(C)nn3)c2)c1F` [Example 267]: the EC50 in assay [1] was in the range of 100 to 1000 nM. In addition, the IC50 in assay [2] is 10 to 100 nM.

With `CC(C)CN(C)C(=O)c1cccc(-c2cccc(-n3ncc(C(=O)O)c3[C@@H]3C[C@H]3c3cn(C)nn3)c2)c1F` (racemic) [Example 266, 1-(2′-Fluoro-3′(isobutyl(methyl)carbamoyl)-[1,1′-biphenyl]-3-yl)-5-(trans-2-(1-methyl-1H-1,2,3-triazol-4-yl)cyclopropyl)-1H-pyrazole-4-carboxylic Acid], the EC50 in assay [1] lay in the range of 100 to 1000 nM. In assay [2], this molecule showed an IC50 of 10 to 100 nM.

As to `CCCC1CCCCN1C(=O)c1cccc(-c2cccc(-n3ncc(C(=O)O)c3C3CC3)c2)c1F` (stereo in doubt) [Example 54d, 5-Cyclopropyl-1-{3-[2-fluoro-3-((2R)-2-propylpiperidine-1-carbonyl)phenyl]phenyl}-1H-pyrazole-4-carboxylic Acid], the EC50 in assay [1] lay within 100 to 1000 nM. In assay [2], this molecule gave an IC50 of 1000 to 10000 nM.

Consider `CCC[C@@H]1CCCCN1C(=O)c1cccc(-c2cccc(-n3ncc(C(=O)O)c3C3CC3)c2)c1F` [Example 54e, 5-Cyclopropyl-1-{3-[2-fluoro-3-((2-S)-2-propylpiperidine-1-carbonyl)phenyl]phenyl}-1H-pyrazole-4-carboxylic Acid], for which the EC50 in assay [1] lay in the range of 100 to 1000 nM. This molecule showed an IC50 in assay [2] of 1000 to 10000 nM.

On to `O=C(O)c1cnn(-c2cccc(-c3cccc(C(=O)N4CCCCC4CCC(F)(F)F)c3F)c2)c1C1CC1` (stereo not drawn) [Example 38, 5-Cyclopropyl-1-(3-{2-fluoro-3-[2-(3,3,3-trifluoropropyl)piperidine-1-carbonyl]phenyl}phenyl)-1H-pyrazole-4-carboxylic Acid], for which the EC50 in assay [1] was 100 to 1000 nM. The same molecule had an IC50 in assay [2] of 100 to 1000 nM.

For the molecule `CC1(C)CCc2cnn(-c3cccc(-c4cccc(-n5ncc(C(=O)O)c5C(F)(F)F)c4)c3)c21` [Example 250, 1-(3′-(6,6-Dimethyl-5,6-dihydrocyclopenta[c]pyrazol-1(4H)-yl)-[1,1′-biphenyl]-3-yl)-5-(trifluoromethyl)-1H-pyrazole-4-carboxylic Acid], in assay [1], the EC50 fell in the range of 100 to 1000 nM. The IC50 in assay [2] fell in the range of 10000 to 100000 nM.

Take `CC1(C)CCc2cnn(-c3cccc(-c4cccc(-n5ncc(C(=O)O)c5C5CC5)c4)c3)c21` [Example 63, 5-Cyclopropyl-1-(3′-(6,6-dimethyl-5,6-dihydrocyclopenta[c]pyrazol-1(4H)-yl)-[1,1′-biphenyl]-3-yl)-1H-pyrazole-4-carboxylic Acid]: the EC50 in assay [1] fell in the range of 100 to 1000 nM. Moreover, the IC50 in assay [2] lay within 100 to 1000 nM.

For the molecule `Cn1cc([C@H]2C[C@@H]2c2c(C(=O)O)cnn2-c2cccc(-c3cccc(C(=O)N4CCCC(C)(C)C4)c3F)c2)nn1` (racemic) [Example 259, 1-(2′-Fluoro-3′-(3,3-dimethylpiperidine-1-carbonyl)-[1,1′-biphenyl]-3-yl)-5-(trans-2-(1-methyl-1H-1,2,3-triazol-4-yl)cyclopropyl)-1H-pyrazole-4-carboxylic Acid], the EC50 in assay [1] lay in the range of 100 to 1000 nM. Also, the IC50 in assay [2] was in the range of 10 to 100 nM.

As to `CCC1Cc2ccccc2CN(Cc2cccc(-c3cccc(-n4ncc(C(=O)O)c4[C@@H]4C[C@H]4c4cn(C)nn4)c3)c2)C1` (relative stereo) [Example 252, 1-(3′-((4-Ethyl-4,5-dihydro-1H-benzo[c]azepin-2(3H)-yl)methyl)-[1,1′-biphenyl]-3-yl)-5-(trans-2-(1-methyl-1H-1,2,3-triazol-4-yl)cyclopropyl)-1H-pyrazole-4-carboxylic Acid], the EC50 in assay [1] was in the range of 100 to 1000 nM. In assay [2], the IC50 was in the range of 100 to 1000 nM.

Take `CCOC[C@H]1CCCN1C(=O)c1cccc(-c2cccc(-n3ncc(C(=O)O)c3[C@@H]3C[C@H]3c3cn(C)nn3)c2)c1F` [Example 268]: the EC50 in assay [1] lay within 100 to 1000 nM. In assay [2], the IC50 was 10 to 100 nM.

Consider `CC1CCC(C)N(C(=O)c2cccc(-c3cccc(-n4ncc(C(=O)O)c4C4CC4)c3)c2F)C1` (stereo not drawn) [Example 30, 5-Cyclopropyl-1-{3-[3-(2,5-dimethylpiperidine-1-carbonyl)-2-fluorophenyl]phenyl}-1H-pyrazole-4-carboxylic Acid], for which the EC50 in assay [1] fell in the range of 100 to 1000 nM. Besides, the IC50 in assay [2] was in the range of 1000 to 10000 nM.

As to `CC1CC(C)CN(C(=O)c2cccc(-c3cccc(-n4ncc(C(=O)O)c4[C@@H]4C[C@H]4c4cn(C)nn4)c3)c2F)C1` (mixture of isomers) [Example 263, 1-(3′-(3,5-Dimethylpiperidine-1-carbonyl)-2′-fluoro-[1,1′-biphenyl]-3-yl)-5-(2-(1-methyl-1H-1,2,3-triazol-4-yl)cyclopropyl)-1H-pyrazole-4-carboxylic Acid], the EC50 in assay [1] fell in the range of 100 to 1000 nM. Also, the IC50 in assay [2] fell in the range of 10 to 100 nM.
